Data from PMC9739537, “Bioassay-Guided Fractionation with Antimalarial and Antimicrobial Activities of Paeonia officinalis” (Molecules, 2022).
In brackets after ≈: the same amount, converted by molar mass. Read-outs that look alike come from different tables or passages of the source.

What was measured:
P. falciparum D6 = test: Antimalarial assay (plasmodial LDH activity), D6 strain; assay type: cell-based, Plasmodium falciparum; conditions: for IC50: Plasmodium falciparum, read-out: IC50 antiplasmodial activity, P. falciparum D6; for SI (Selectivity index), P. falciparum D6: VERO vs P. falciparum D6
Experimental: (§1) The assay is based on the measurement of plasmodial LDH activity. The test was conducted using a suspension of red blood cells infected with D6 or W2 strains of P. falciparum (200 µL, with 2% parasitemia, and 2% hematocrit in RPMI 1640 medium supplemented with 10% human serum and 60 µg/mL Amikacin) into the wells of a 96-well plate containing 10 µL of test samples diluted in medium at various concentrations. The plate was put in a modular incubation chamber (Billups-Rothenberg, San Diego, CA, USA); flushed with a gas mixture consisting of 90% N2, 5% O2, and 5% CO2; and incubated for 72 h at 37 °C. Parasitic LDH activity was measured by utilizing Malstat reagent (Flow Inc., Portland, OR, USA). Briefly, 20 µL of the incubation mixture was combined with 100 µL of the Malstat reagent and incubated at room temperature for 30 min. Then, twenty microliters of a 1:1 mixture of NBT/PES (Sigma, St. Louis, MO, USA) was added and the plate was further incubated in the dark for 1 h. The reaction was then stopped by the addition of 100 µL of a 5% acetic acid solution. The plate was read at 650 nm using the EL-340 Biokinetics Reader (Bio-Tek Instruments, Winooski, VT, USA). The dose–response curves were used to calculate IC50 values. […] Dimethyl sulfoxide (0.25%) was used as vehicle control.

P. falciparum W2 = test: Antimalarial assay (plasmodial LDH activity), W2 strain; assay type: cell-based, Plasmodium falciparum; conditions: for IC50: Plasmodium falciparum, read-out: IC50 antiplasmodial activity, P. falciparum W2; for SI (Selectivity index), P. falciparum W2: VERO vs P. falciparum W2
Experimental: as §1

VERO = test: Cytotoxicity toward mammalian kidney fibroblasts (Vero); assay type: cell-based; conditions: Chlorocebus sabaeus, VERO cells
C. neoformans = test: Antimicrobial susceptibility testing (modified CLSI), C. neoformans; assay type: cell-based, Cryptococcus neoformans
From the text: (§2) The microorganism strains that were employed to test the antimicrobial activity were Candida albicans Pinh, C. neoformans Pinh, Aspergillus fumigatus Pinh, methicillin-resistant Staphylococcus aureus Pinh (MRS), E. coli Pinh, Pseudomonas aeruginosa Pinh, Klebsiella pneumoniae Pinh, and Vancomycin-resistant Enterococci (VRE) Pinh. The strains were bought from the American Type Culture Collection. A modified version of the CLSI methodology was used for the susceptibility testing. A final DMSO concentration of 1% was maintained in the assay by serially diluting all samples in 20% DMSO/saline and transferring them in duplicate to 384 well flat-bottom microplates. Following the McFarland standard, inocula were created by adjusting the OD630 of microbe suspensions in incubation broth. C. albicans was cultured in RPMI 1640 broth (2% dextrose, 0.03% glutamine, and MOPS at pH 6); C. neoformans in Sabouraud Dextrose; MRS, VRE, E. coli, K. pneumoniae, and P. aeruginosa in cation-adjusted Mueller–Hinton at pH 7.3, and A. fumigatus in RPMI 1640 broth (2% dextrose, 0.03% glutamine, buffered with 0.165 M MOPS at pH 7). Five percent Alamar Blue was added in A. fumigatus, VRE, and MRS. In every assay, there were drug controls for bacteria and fungi. […] A Bio-Tek plate reader was used to measure the optical density (530 nm) or fluorescence (544ex/590em) before and after incubation.

Klebsiella pneumoniae = test: Antimicrobial susceptibility testing (modified CLSI), K. pneumoniae; assay type: cell-based
From the text: as §2

Pseudomonas aeruginosa = test: Antimicrobial susceptibility testing (modified CLSI), P. aeruginosa; assay type: cell-based
From the text: as §2

[1] = system: methicillin-resistant Staphylococcus aureus (MRS); test: Antimicrobial susceptibility testing (modified CLSI), MRS; assay type: cell-based
From the text: as §2

[2] = system: Candida albicans, C. neoformans, Aspergillus fumigatus, MRS, E. coli, Pseudomonas aeruginosa, Klebsiella pneumoniae, VRE; test: Antimicrobial panel (all assayed microorganisms); assay type: cell-based; conditions: at the tested concentration
From the text: as §2

Row | IC50 (P. falciparum D6; D6 strain, 72 h) | IC50 (P. falciparum W2; W2 strain, 72 h) | SMILES | IC50 (VERO) | antiplasmodial activity against P. falciparum D6 (in words) (P. falciparum D6; D6 strain) | SI (Selectivity index), P. falciparum D6 (P. falciparum D6) | SI (Selectivity index), P. falciparum W2 (P. falciparum W2) | antiplasmodial activity against P. falciparum W2 (in words) (P. falciparum W2; W2 strain) | antimicrobial activity (in words) [2] | further results
1 |  |  | CCN(CC)CCCC(C)Nc1ccnc2cc(Cl)ccc12 (stereo not shown) [Chloroquine, chloroquine, reference compound] | > 0.24 µg/mL |  |  |  |  |  | IC50 (P. falciparum D6; D6, 72 h): 0.026 µg/mL (≈ 0.0813 µM); IC50 (P. falciparum W2; W2, 72 h): 0.14 µg/mL (≈ 0.438 µM)
2 |  |  | OC(Cn1cncn1)(Cn1cncn1)c1ccc(F)cc1F [Fluconazole, fluconazole] |  |  |  |  |  |  | IC50 antimicrobial activity, C. neoformans (C. neoformans): 4.684 µg/mL (≈ 15.3 µM); IC50 (C. neoformans; Cryptococcus neoformans): 4.68 µg/mL (≈ 15.3 µM)
3 |  |  | C[C@@H](O)[C@H]1C(=O)N2C(C(=O)O)=C(S[C@@H]3CN[C@H](C(=O)N(C)C)C3)[C@H](C)[C@H]12 [Meropenem, meropenem] |  |  |  |  |  |  | IC50 antimicrobial activity, K. pneumoniae (Klebsiella pneumoniae): 9.143 µg/mL (≈ 23.8 µM); IC50 antimicrobial activity, K. pneumoniae (Klebsiella pneumoniae; listed as meropenem): 43.94 µg/mL (≈ 115 µM); IC50 (Pseudomonas aeruginosa): 28.7 µg/mL (≈ 74.8 µM); IC50 [1]: 46.9 µg/mL (≈ 122 µM)
4 | 1.57 µg/mL (≈ 8.53 µM) | 0.61 µg/mL (≈ 3.31 µM) | COC(=O)c1cc(O)c(O)c(O)c1 [compound 3, methyl gallate] | > 4.76 µg/mL | remarkable antiplasmodial activity | >3 | >7.8 | remarkable antiplasmodial activity | no exhibition of antimicrobial activity | 
5 | 4.72 µg/mL (≈ 7.46 µM) | 2.91 µg/mL (≈ 4.6 µM) | C[C@@]12C[C@@]3(O)O[C@@H](O1)[C@]1(COC(=O)c4ccccc4)[C@@H]3C[C@]12O[C@@H]1O[C@H](COC(=O)c2cc(O)c(O)c(O)c2)[C@@H](O)[C@H](O)[C@H]1O [compound 5, galloyl paeoniflorin] | > 4.76 µg/mL | remarkable antiplasmodial activity | >1 | >1.6 | remarkable antiplasmodial activity | no exhibition of antimicrobial activity | 
